Assay [1] relates to RBCs derived from humans having type 2 diabetes. Nature of the assay: MAS7-induced ATP release by RBCs from humans with type 2 diabetes. In kind it is cell-based, human. The settings on record: type 2 diabetic RBCs, stimulation via the Gi pathway (MAS7), compared with RBCs of healthy individuals, FIG. 7. How it is done: (§1) Erythrocytes (20% hct) were incubated with Mastoparan 7 (10 μM) or its vehicle in the presence or absence of 1 uM insulin. ATP release from erythrocytes was measured at 5 minute intervals using the luciferan/luciferase assay. In separate studies, erythrocytes (50% hct) were incubated with vehicle, 10 uM cilostazol, 100 μM cilostazol, […], 3 uM insulin, and/or 10 uM Mastoparan 7 for determination of cAMP concentration. At timed intervals, 4 mL of ice cold ethanol containing 1 mM HCl was added to 1 mL of RBC suspension. After centrifugation at 14,000×g at 4° C. for 10 min., the supernatant was dried under vacuum. Samples were resuspended in assay buffer and cAMP concentration was determined in duplicate by EIA.
(§2) Measurement of ATP: ATP was measured using the luciferin-luciferase assay. A 200 μL sample of an erythrocyte suspension was injected into a cuvette containing 100 μL of 10 mg/ml crude firefly tail extract and 100 μL of a 0.5 mg/ml solution of D-luciferin. The light emitted from the reaction of ATP with the crude firefly tail extract was measured using a luminometer designed to detect a wavelength of 565 nm. The peak light emitted was compared to an ATP standard curve generated on the day of the experiment.

Assay [2] has as its system human erythrocytes. The experiment in a line: cAMP concentration in human erythrocytes (EIA). In kind it is cell-based. The note with it: for cAMP production / synthesis on incubation with activator: activator of Gs or Gi alone; for Mas7-induced cAMP accumulation in the presence of insulin: MAS7 10 μM, insulin pre-incubation; for cAMP accumulation in response to Gs/Gi activation or reduced O2 tension, in the presence of insulin: insulin at concentrations reported in plasma of humans with prediabetes. Here is the method:
as §1
(§3) Protocol A: Washed erythrocytes are incubated with insulin (0.1 nM-1 μM, Humalog®), or its vehicle (saline) for 30 min [28, 29, 47, 60]. Erythrocytes are incubated with either iloprost (1 μM), isoproterenol (10 μM) (receptor-mediated activators of Gs) or mastoparan 7 (MAS7, 10 μM) (a direct activator of Gi) or their vehicle (saline). After 15 min, cAMP accumulation and ATP release will be determined.
After 30 min, the cells were incubated with either iloprost (1 μM), isoproterenol (10 μM), MAS7 (10 μM) or exposed to reduce O2 tension and cAMP accumulation and ATP release was determined. Control experiments: Identical experiments were performed with the vehicles for the various inhibitors. […] The concentrations chosen for rolipram and sildenafil PDE are those reported to be specific for the PDEs indicated.
Measurement of cAMP: 1 ml of erythrocyte suspension was added to 4 ml of ice cold ethanol containing 1 mM HCl and the mixture was centrifuged at 21,000×g for 10 minutes at 4° C. The supernatant was removed and stored overnight at −20° C. to precipitate remaining proteins. Samples were centrifuged a second time at 3,700×g for 10 minutes at 4° C. The supernatant was removed and dried under vacuum centrifugation. Concentrations of cAMP were determined by EIA.
In general terms: cAMP levels reflect the balance of adenylyl cyclase and phosphodiesterase activity.

In a further assay the test system is PDE4. The note with it: reported in reference [54]; cited from earlier work.
Assay [3] deals with human erythrocytes. The experiment in a line: ATP release from human erythrocytes (luciferin-luciferase assay). In kind it is cell-based. The settings on record: for ATP release on incubation with activator: activator of Gs or Gi alone; for Mas7-induced ATP release in the presence of insulin: MAS7 10 μM, insulin 1 μM pre-incubation; for ATP release in response to Gs/Gi activation or reduced O2 tension, in the presence of insulin: insulin at concentrations reported in plasma of humans with prediabetes. How it is done: as §1, §3
Protocol C: To determine effects of direct activation of adenylyl cyclase and active cAMP analogs on ATP release from erythrocytes in the presence of insulin, washed erythrocytes are incubated with insulin (0.1 nM-1 μM) or its vehicle (saline). After 30 min, the cells are incubated with either the non-selective activator of adenylyl cyclase (AC) activity, forskolin (1 to 10 μM), or one of two active cAMP analogs that are resistant to degradation, SpcAMP (10 to 100 μM) or 8-bromo-cAMP (10 to 100 μM). ATP release will be measured at 5, 10 and 15 min after addition of forskolin or the active cAMP analogs. Controls: To ensure the effects of forskolin or the cAMP analogs are not due to effects of vehicle or time, identical experiments are conducted using their vehicles, N,Ndimethylformamide (DMF) or saline, respectively, in lieu of the active agent. Total intracellular ATP and free hemoglobin, a measurement of erythrocyte lysis, is determined.
as §2
Exposure of Erythrocytes to Reduced Oxygen Tension: Washed erythrocytes were diluted in Krebs buffer containing bicarbonate (4.7 KCl, 2.0 mM CaCl2, 140.5 mM NaCl, 1.2 mM MgSO4) and equilibrated for 30 minutes in a tonometer (15% O2, 5% CO2, balance N2) (normoxia). Erythrocytes were then exposed to hypoxia by changing the equilibrating gas to 5% O2, 5% CO2, balance N2. ATP released from the erythrocytes as well as pH and blood gas tensions were determined at 5, 10 and 15 min after exposure to the various gas tensions. In separate studies, samples were collected into acidified ethanol for cAMP measurement.

For assay [4], the system named is human erythrocytes. Nature of the assay: Total intracellular ATP of erythrocytes. In kind it is cell-based. The settings on record: human erythrocytes pre-incubated with insulin 1 μM. How it is done:
Measurement of Total Intracellular ATP: A known number of erythrocytes was lysed in distilled water at room temperature. ATP in the lysate, diluted 8,000 fold, was measured using ATP assay and the values normalized to ATP concentration per erythrocyte.

Entries after “also recorded” stand apart in the source; their conditions may differ.

Take `O=C1CCc2cc(OCCCCc3nnnn3C3CCCCC3)ccc2N1` [cilostazol]: the “MAS7-induced ATP release by diabetic RBCs treated with cilostazol” value is reported as “normal levels of ATP” in assay [1] and “not significantly different from the levels released by RBCs of healthy individuals” in assay [1] (listed as CILO). Also, in the assay on human erythrocytes [2] (FIG. 11), the “iloprost-induced cAMP accumulation after cilostazol pre-treatment” value is on record as “concentration-dependent increases”. Moreover, the “basal cAMP levels” value in the assay on human erythrocytes [2] (in the presence of cilostazol) is on record as “increased”. The “concentrations inhibiting PDE4 activity relative to those used here” value with PDE4 is on record as “ten-fold greater”.

With `CC#CCC(C)[C@H](O)/C=C/[C@@H]1[C@H]2C/C(=C/CCCC(=O)O)C[C@H]2C[C@H]1O` (stereo partly drawn) [iloprost, reference compound], in the assay on human erythrocytes [2], the “cAMP production / synthesis on incubation with activator” value (from here on “cAMP production / synthesis”) is “stimulate”. Further, in the assay with human erythrocytes [3], the “ATP release on incubation with activator” value is on record as “stimulate”.

For `CC(C)NCC(O)c1ccc(O)c(O)c1` (stereo not drawn) [isoproterenol, reference compound], in the assay with human erythrocytes [2], the “cAMP production / synthesis” value is reported as “stimulate”. The “ATP release on incubation with activator” value in the assay with human erythrocytes [3] is reported as “stimulate”.

Take `COc1ccc(C2CNC(=O)C2)cc1OC1CCCC1` (stereo not drawn) [rolipram, reference compound]: in the assay with human erythrocytes [2] (rolipram 30 μM, n=6), the “iloprost-induced cAMP accumulation with rolipram” value is reported as “no effect”.

In the case of Mastoparan 7 [reference compound], the “cAMP production / synthesis” value with human erythrocytes [2] is recorded as “increased cAMP production”; in the assay with human erythrocytes [2] (listed as MAS7) it was “stimulate”. In addition, the entries for the “ATP release on incubation with activator” value with human erythrocytes [3] and in the assay on human erythrocytes [3] (listed as MAS7) were “ATP release” and “stimulate”, respectively.

For the molecule “insulin: insulin incubated with erythrocytes; Humalog or regular human insulin in the protocols”, the “Mas7-induced cAMP accumulation in the presence of insulin” value in the assay on human erythrocytes [2] (FIG. 8) is reported as “greater at lower (nM) insulin concentrations; also recorded: decline; also recorded: decreases; also recorded: reduces; also recorded: inhibition”; in the assay on human erythrocytes [2] (FIG. 8, listed as Insulin), “reduces”. Moreover, the results for the “cAMP accumulation in response to Gs/Gi activation or reduced O2 tension, in the presence of insulin” value in the assay with human erythrocytes [2] and in the assay with human erythrocytes [2] (listed as Insulin) were “inhibited; also recorded: limit; also recorded: decreases” and “decreases”, respectively. Further, the “total ATP content” value in the assay with human erythrocytes [4] was “absence of changes”. In addition, the “Mas7-induced ATP release in the presence of insulin” value was “inhibit; also recorded: decline; also recorded: decreases; also recorded: reduces; also recorded: attenuated” with human erythrocytes [3] (FIG. 9) and “reduces” with human erythrocytes [3] (FIG. 9, listed as Insulin). Further, the “ATP release in response to Gs/Gi activation or reduced O2 tension, in the presence of insulin” value in the assay on human erythrocytes [3] is listed as “inhibits; also recorded: attenuates”; with human erythrocytes [3] (listed as Insulin) it was “attenuates”. Moreover, in the assay on human erythrocytes [3] (insulin pretreatment), the “ATP release in response to active cAMP analogs resistant to hydrolysis by PDEs, in the presence of insulin” value is listed as “no effect”.

The values above are taken from patent US8084221B2, “Method of screening for a drug candidate that increases ATP release from RBCs stimulated via the Gs or Gi pathway” (Saint Louis University, priority 2006, dated 2011).
